Activity calls are given as the source filed them. The rule behind the calls is not given here.
Tests used:
[1] = Effect on glucose-dependent insulin secretion activity per ug of total protein in rat RIN5F cells at 1 uM after 30 mins; type: functional
Rattus norvegicus = organism: Rattus norvegicus; assay: Displacement of [3H]clonidine from alpha2-AR in cerebral cortex of rat brain upto 100 uM; type: tissue-based
[2] = Effect on glucose-dependent insulin secretion activity per ug of total protein in rat RIN5F cells at 0.1 uM after 30 mins; type: functional
Oryctolagus cuniculus = organism: Oryctolagus cuniculus; assay: Displacement of [3H]idazoxan from I2-imidazoline binding site in rabbit kidney membrane upto 100 uM; type: cell membranes
[3] = Effect on glucose-dependent insulin secretion activity per ug of total protein in rat RIN5F cells at 10 uM after 30 mins; type: functional
Bos taurus = organism: Bos taurus; assay: Displacement of [3H]clonidine from I1-imidazoline binding site in bovine adrenal medulla plasma membrane upto 100 uM; type: tissue-based
[4] = Displacement of [3H]idazoxan from I2-imidazoline binding site in rabbit kidney membrane; type: cell membranes, Oryctolagus cuniculus
[5] = Displacement of [3H]clonidine from alpha-2-adrenoceptor in cerebral cortex of rat brain; type: tissue-based
[6] = Displacement of [3H]clonidine from I1-imidazoline binding site in bovine adrenal medulla plasma membrane; type: tissue-based, Bos taurus
[7] = Effect on insulin secretion activity per ug of total protein in rat RIN5F cells at 0.1 uM after 30 mins; type: functional
[8] = Effect on insulin secretion activity per ug of total protein in rat RIN5F cells at 1 uM after 30 mins; type: functional

SMILES	Activity (Rattus norvegicus)	Activity (Oryctolagus cuniculus)	Activity (Bos taurus)	Activity [1] [pg/µg/h]	Activity [2] [pg/µg/h]	Activity [3] [pg/µg/h]	Ki [4] [µM]	Ki [5] [µM]	Ki [6] [µM]	Activity [7] [pg/µg/h]	Activity [8] [pg/µg/h]
COC(=O)C1Cc2c(n(C)c3ncc(C)cc23)C(Cc2ccccc2)N1 (stereo not drawn)	inactive	inactive	inactive	15.9	15.1	16.8					
Cc1nccc2c1[nH]c1ccccc12 [HARMAN]				27	20	37	0.054	> 12	0.036		
CCCCNC(=O)NS(=O)(=O)c1ccc(C)cc1 [TOLBUTAMIDE]				27.1	19.9					19.6	26

Further lines, with some results ahead:

Activity (Rattus norvegicus)	Activity (Oryctolagus cuniculus)	Activity (Bos taurus)	SMILES	Activity [1] [pg/µg/h]	Activity [2] [pg/µg/h]	Activity [3] [pg/µg/h]	Ki [4] [µM]	Ki [5] [µM]	Ki [6] [µM]	Activity [7] [pg/µg/h]	Activity [8] [pg/µg/h]
inactive	inactive	inactive	COC(=O)c1cc2c3cc(C)cnc3n(C)c2c(Cc2ccccc2)n1	16.1	15.9	16.9					
inactive	inactive	inactive	Cc1cnc2c(c1)c1cc(C(=O)O)nc(Cc3ccccc3)c1n2C	28.1	20	38.3					

— ChEMBL document CHEMBL1149631, “Synthesis of 3,8,9-trisubstituted-1,7,9-triaza-fluorene-6-carboxylic acid derivatives as a new class of insulin secretagogues” (Bioorg Med Chem, 2007)
